Source: patent publication US9868956B2, “Methods” (North Carolina State University, priority 2009, dated 2018)

Assays:
MbPyIRS/tRNACUA pair = molecular target: T1, MbPyIRS/tRNACUA pair (Methanosarcina barkeri, UniProt Q6WRH6); assay: Expression of myoglobin-his6 (amber codon at position 4) in E. coli with the MbPyIRS/tRNACUA pair in the presence of the amino acid; assay type: cell-based; conditions: for yield of full-length myoglobin-his6 purified by Ni-NTA chromatography: E. coli with pBKPylS and pMyo4TAGPylT-his6, amino acid added to log phase cells (1 mM for 1 and 2); for incorporation by the MbPyIRS/tRNACUA pair (myoglobin-his6 purified by Ni-NTA chromatography): E. coli, 1 mM amino acid
T1 construct: expressed in transfected cells; host or cells: E. coli DH10B transformed with pBKPylS and pMyo4TAGPylT-his6
T1 sequence (Q6WRH6 whole entry): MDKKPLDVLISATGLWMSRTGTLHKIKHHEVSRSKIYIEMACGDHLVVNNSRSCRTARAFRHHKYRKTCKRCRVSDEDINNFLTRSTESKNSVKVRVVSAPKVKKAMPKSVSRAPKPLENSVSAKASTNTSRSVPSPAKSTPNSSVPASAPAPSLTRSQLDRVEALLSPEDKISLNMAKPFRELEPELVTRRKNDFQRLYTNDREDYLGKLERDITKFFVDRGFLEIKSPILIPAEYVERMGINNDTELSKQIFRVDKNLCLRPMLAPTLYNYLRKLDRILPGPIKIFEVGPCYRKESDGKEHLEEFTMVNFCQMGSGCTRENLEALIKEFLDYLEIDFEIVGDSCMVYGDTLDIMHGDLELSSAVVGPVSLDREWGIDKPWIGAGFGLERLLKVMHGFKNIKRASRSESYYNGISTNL
Protocol: To investigate whether 1 and 2 are substrates for the MbPyIRS/tRNACUA pair, we transformed E. coli with pBKPylS10 (which encodes MbPyIRS) and pMyo4TAGPylT-his610 (which encodes MbtRNACUA and a C-terminally hexahistidine tagged myoglobin gene with an amber codon at position 4). We added 1 or 2 (1 mM) to log phase cells and induced myoglobin-his6 expression. […] This may reflect the greater flexibility of the carbamate linkage. The yield of protein containing 2 was not improved by efforts to evolve the enzyme but was increased 5-fold by increasing the concentration of 2 7.5 fold (Supplementary FIG. 2A).
To investigate if the carbamate linkage provides a general route to the incorporation of other functional groups suitable for bioconjugation, we synthesized a simple aliphatic azide 3 (2 steps, 80% yield, Supplementary Scheme 1 and Supplementary Methods).
To express sperm whale myoglobin with an incorporated unnatural amino acid, we transformed E. coli DH10B cells with pBKPylS and pMyo4TAGPylT-his6. Cells were recovered in 1 mL of LB media for 1 h at 37° C., before incubation (16 h, 37° C., 250 r.p.m.) in 100 mL of LB containing kanamycin (50 μg/mL) and tetracycline (25 μg/mL). 20 mL of this overnight culture was used to inoculate 500 mL of LB supplemented with kanamycin (25 μg/mL), tetracycline (12 μg/mL) and 2 mM of 2. Cells were grown (37° C., 250 r.p.m.), and protein expression was induced at OD600-0.6, by addition of arabinose to a final concentration of 0.2%. After 3 h of induction, cells were harvested. Proteins were extracted by sonication at 4° C. The extract was clarified by centrifugation (20 min, 21,000 g, 4° C.), 300 μL of Ni^2+-NTA beads (Qiagen) were added to the extract, the mixture was incubated with agitation for 1 h at 4° C. Beads were collected by centrifugation (10 min, 1000 g). The beads were twice resuspended in 50 mL wash buffer and spun down at 1000 g. Subsequently, the beads were resuspended in 20 ml of wash buffer and transferred to a column. Protein was eluted in 1 ml of wash buffer supplemented with 200 mM imidazole and was then re-buffered to 20 mM ammonium bicarbonate using a sephadex G25 column. The purified proteins were analysed by 4-12% SDS-PAGE.
E. coli DH10B cells containing pBKPylS and pMyo4TAGPylT were inoculated into LB containing kanamycin (50 μg/mL) and tetracycline (25 μg/mL). The cells were incubated with shaking overnight at 37° C. 200 μL of cells were inoculated into each of 3 mL LB aliquots containing kanamycin (25 μg/mL) and tetracycline (12 μg/mL) and supplemented with different concentrations (7.5 mM, 5 mM, 2.5 mM, 1 mM, 0.75 mM, 0.5 mM, 0.25 mM, 0.1 mM, 0 mM) of 2. After 3 h of incubation with shaking at 37° C., protein expression was induced by the addition of 30 μL of 20% arabinose. After 12 h of expression, cell were collected by centrifugation (16000 g, 5 min) of 1 mL of cell suspension. The cells were resuspended in 100 μL of NuPAGE SDS Sample buffer supplemented with 10% f3-mercaptoethanol, heated at 80° C. for 10 min and centrifuged at 16000 g for 10 min. The crude cell lysate was analysed by 4-12% SDS-PAGE. Western blots were performed with antibodies against the hexahistidine tag (Invitrogen AntiHis monoclonal Mouse antibody).

[1] = Labeling of myoglobin-his6 bearing 2 with azido-probes via copper catalysed [3+2] cycloaddition; conditions: biotin azide 5 or By3 azide 6; CuSO4/ascorbate/ligand, pH 8.3
Protocol: In control experiments myoglobin-his6 bearing 3 at position 4 was treated identically. After 18 h, the purified labeling reactions were probed (FIG. 2A).
Quantification of the ratio of biotin or By3 to protein in purified samples provides independent confirmation of the labeling efficiency (Supplementary Methods).
Protein was re-buffered to 100 mM sodium phosphate buffer (pH 8.3) and concentrated to 2.5 mg/mL. 100 mM stock solutions of CuSO4, sulfonated bathophenanthroline sodium salt (GFS Chemicals) and sodium ascorbate in water were prepared, pre-mixed and incubated at room temperature for 5 min. Myoglobin containing 2 (13.5 nmol) was reacted for 15 minutes at 25° C., then 4° C. for 18 h with the biotin azide (Quanta Biodesign) 5 or the By3 azide (Primetech LTD) 6 (50 equivalents, 10 mM in DMSO) and CuSO4 (1 mM)/ascorbate (1 mM)/ligand (2 mM)^20. After 18 h, the solutions were diluted to 1 mL and loaded onto an Illustra™ NAP-10 column. Proteins were eluted into 1.5 mL of 20 mM NH4HCO3, dialyzed overnight with 20 mM NH4HCO3, loaded onto PD10 and eluted into 3.5 mL 20 mM NH4HCO3. […] Protein concentration of the labeled samples were measured by BCA Protein Assay (Thermo Scientific). The Biotin Quantitation Kit (Thermo Scientific) was used to quantify biotin-conjugated protein in labeled samples, and the By3 absorbance at 550 nm was used to quantify purified By3-labeled protein. […]

C#CCOC(=O)NCCCC[C@H](N)C(=O)O.O=C(O)C(F)(F)F [compound 2, (S)-2-amino-6-((prop-2-ynyloxy)carbonylamino)hexanoic acid TFA salt]
yield of full-length myoglobin-his6 purified by Ni-NTA chromatography (MbPyIRS/tRNACUA pair): 2 mg/L
incorporation by the MbPyIRS/tRNACUA pair (myoglobin-his6 purified by Ni-NTA chromatography) (MbPyIRS/tRNACUA pair): incorporated
increase in yield of protein containing 2 (MbPyIRS/tRNACUA pair; on increasing the concentration of 2 7.5 fold, Western blot against his-6 in cell lysates): 5 fold
labeling of genetically encoded alkyne with azides that introduce biotin or fluorescent groups [1]: specifically and efficiently labeled

C#CCCC(=O)NCCCC[C@H](N)C(=O)O.O=C(O)C(F)(F)F [compound 1, (S)-2-amino-6-pent-4-ynamidohexanoic acid TFA salt]
incorporation by the MbPyIRS/tRNACUA pair (myoglobin-his6 purified by Ni-NTA chromatography) (MbPyIRS/tRNACUA pair): only background levels

O=C(O)C(F)(F)F.[N-]=[N+]=NCCOC(=O)NCCCC[C@H](N)C(=O)O [compound 3, (S)-2-amino-6-((2-azidoethoxy)carbonylamino)hexanoic acid TFA salt]
yield of full-length myoglobin-his6 purified by Ni-NTA chromatography (MbPyIRS/tRNACUA pair): 3 mg/L
